# Measurements taken from patent US6387389B1 (priority 1996, dated 2002).
# Tests used:
# [1] = tested on: dopamine transporter versus serotonin and norepinephrine transporters; conditions: Rothman et al. (1993); cited from earlier work
# [2] = tested on: food-maintained and cocaine-maintained responding in rhesus monkeys; conditions: comparison value for the shorter-acting drug; cited from earlier work
# [3] = tested on: food-maintained and cocaine-maintained responding in rhesus monkeys; conditions: rhesus monkey, in vivo
# [4] = tested on: dopamine (DA) and serotonin (5-HT) in nucleus accumbens dialysate; test: In vivo microdialysis with methamphetamine challenge; design: species or system male Sprague-Dawley rats; conditions: 0.7 ml/kg im
# [5] = target: T1, reuptake of tritiated serotonin ([3H]5HT), rat whole brain minus cerebellum synaptosomes (Rattus norvegicus, UniProt P31652); assay type: biochemical
# T1 construct: homogenization of rat caudate (DA) or whole brain minus cerebellum (5HT); from tissue; host or cells: rat whole brain minus cerebellum, synaptosomes
# [6] = methamphetamine 1 mg/kg iv four days later, FIG. 4 (percent of baseline)
# T1 sequence (P31652 whole entry): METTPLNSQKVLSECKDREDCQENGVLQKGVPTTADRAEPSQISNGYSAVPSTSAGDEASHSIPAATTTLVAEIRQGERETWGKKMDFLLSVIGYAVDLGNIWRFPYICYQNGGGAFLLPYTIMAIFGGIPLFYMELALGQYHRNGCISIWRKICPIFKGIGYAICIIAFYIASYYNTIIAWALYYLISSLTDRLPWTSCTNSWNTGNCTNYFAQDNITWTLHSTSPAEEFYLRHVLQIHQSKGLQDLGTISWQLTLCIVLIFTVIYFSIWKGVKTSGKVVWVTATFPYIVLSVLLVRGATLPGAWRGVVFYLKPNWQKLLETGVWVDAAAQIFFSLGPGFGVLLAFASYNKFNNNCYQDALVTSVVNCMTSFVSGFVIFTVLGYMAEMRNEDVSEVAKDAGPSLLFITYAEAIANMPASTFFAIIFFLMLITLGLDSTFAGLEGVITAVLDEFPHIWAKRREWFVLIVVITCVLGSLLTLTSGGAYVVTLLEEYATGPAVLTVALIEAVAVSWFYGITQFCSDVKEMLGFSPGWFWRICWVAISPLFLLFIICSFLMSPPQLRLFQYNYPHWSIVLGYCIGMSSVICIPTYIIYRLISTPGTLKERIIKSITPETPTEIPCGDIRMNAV
smiles,measurement,setting,value
"c1ccc(CCCN2CCCN(CCOC(c3ccccc3)c3ccccc3)CC2)cc1 [LR1111, 1-[2-(diphenyl-methoxy)-ethyl]-4-(3-phenylpropyl)homopiperazine]",selectivity for the dopamine transporter over the serotonin and norepinephrine transporters,[1],"over 4,000 fold"
"Fc1ccc(C(OCCN2CCN(CCCc3ccccc3)CC2)c2ccc(F)cc2)cc1 [GBR 12909, 1-[2-[bis(4-fluorophenyl)methoxy]ethyl]-4-[3-phenylpropyl]piperazine]",duration of effect on cocaine-maintained responding,[2],4 to 6 h
"CCCCCCCCCC(=O)OC(CCN1CCN(CCOC(c2ccc(F)cc2)c2ccc(F)cc2)CC1)c1ccccc1 (racemic) [compound 5*, (±)1-[2-Bis-(p-fluorophenyl)methoxy]ethyl]-4-(3-hyroxy-3-phenylpropyl)piperazine decanoate ester]",duration of sustained and selective effect on cocaine-maintained responding,[3],almost thirty days
same,increase of basal levels of dopamine (DA),"[4]; four days after injection, FIG. 3",two-fold
same,ability of methamphetamine to increase dopamine levels,"[4]; methamphetamine 1 mg/kg iv four days later, FIG. 3 (picogram/fraction)",essentially eliminated
same,ability of methamphetamine to increase dopamine,[4]; [6],blunted
same,ability of methamphetamine to increase serotonin (5-HT),[4]; [6],blunted
NCCc1c[nH]c2ccc(O)cc12 [[^3H]5HT],Km,[5],0.0174 ± 0.0008 µM
